This is an account of results in BindingDB's records for doi:10.1016/j.bioorg.2016.01.003 (Panjab University, 2016).

Structures are written as SMILES.

Common to all, as to assay: Radioligand Binding Assay
The target in experiment [1] is Adenosine receptor A2a (Homo sapiens, UniProt P29274). The procedure:
(§1) Dissociation constants at A1, A2A and A3 receptors (Ki-values) were determined in radioligand competition experiments as reported earlier [19,20]. All binding experiments were done in a microplate format utilizing a 96-well microplate filtration system (Millipore Multiscreen MAFC). As radioligands the agonists [3H]CCPA (1 nM) for A1, [3H]NECA (10 nM) for A2A, and [3H]HEMADO (1 nM) for A3 receptors were used. Samples were incubated with 10 µg of membrane protein for 3 h at 25 °C, filtered through the built-in filter at the bottom of the wells and washed three times with […] of ice-cold binding buffer. After addition of 20 µl of scintillator to the dried filter plates samples were counted in a Wallac Micro-Beta counter. Nonspecific binding was determined in the presence of 1 mM theophylline ([3H]CCPA) or […] (N6-phenylisopropyladenosine; [3H]NECA and [3H] HEMADO).

The target in experiment [2] is T1, Adenosine receptor A1 (Homo sapiens, UniProt P30542).
T1 sequence (P30542 whole entry): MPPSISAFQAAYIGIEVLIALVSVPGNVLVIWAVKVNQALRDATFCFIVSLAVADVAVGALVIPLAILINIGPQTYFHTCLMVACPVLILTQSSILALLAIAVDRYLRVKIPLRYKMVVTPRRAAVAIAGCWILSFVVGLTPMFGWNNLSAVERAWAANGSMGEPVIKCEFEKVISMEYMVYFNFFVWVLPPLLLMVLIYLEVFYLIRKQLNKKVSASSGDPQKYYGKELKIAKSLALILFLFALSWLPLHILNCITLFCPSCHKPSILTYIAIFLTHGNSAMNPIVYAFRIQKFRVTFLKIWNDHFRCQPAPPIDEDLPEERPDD
The procedure:
as §1

Experiment [3] has as its target T2, Adenosine receptor A2b (Homo sapiens, UniProt P29275).
T2 sequence (P29275 whole entry): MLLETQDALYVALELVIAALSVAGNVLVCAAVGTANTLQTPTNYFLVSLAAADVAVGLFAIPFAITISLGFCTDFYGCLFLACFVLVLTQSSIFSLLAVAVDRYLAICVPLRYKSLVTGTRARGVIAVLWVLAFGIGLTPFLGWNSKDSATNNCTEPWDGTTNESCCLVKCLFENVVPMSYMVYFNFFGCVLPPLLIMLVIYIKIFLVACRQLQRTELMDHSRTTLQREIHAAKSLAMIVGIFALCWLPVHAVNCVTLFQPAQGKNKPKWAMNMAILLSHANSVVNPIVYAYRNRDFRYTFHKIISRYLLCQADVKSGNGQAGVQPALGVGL

Sequence of Adenosine receptor A2a (P29274 whole entry): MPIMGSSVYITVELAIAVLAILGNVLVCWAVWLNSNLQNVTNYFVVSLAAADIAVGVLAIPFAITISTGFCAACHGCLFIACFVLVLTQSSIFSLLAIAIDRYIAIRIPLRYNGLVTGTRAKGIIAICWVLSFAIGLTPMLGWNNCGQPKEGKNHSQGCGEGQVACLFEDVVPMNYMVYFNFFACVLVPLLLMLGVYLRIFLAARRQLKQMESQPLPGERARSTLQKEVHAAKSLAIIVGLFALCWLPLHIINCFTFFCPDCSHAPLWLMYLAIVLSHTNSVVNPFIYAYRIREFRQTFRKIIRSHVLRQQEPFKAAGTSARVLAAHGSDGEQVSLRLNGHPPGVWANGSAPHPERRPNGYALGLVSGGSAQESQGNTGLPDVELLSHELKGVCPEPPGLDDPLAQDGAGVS

Consider `COC(=O)COc1cc(-c2nc3c([nH]2)c(=O)n(C)c(=O)n3C)ccc1OC` [1,3-Dimethyl-8-[{3-(2-methoxy-2-oxoethoxy)-4-methoxy}-phenyl]xanthine (16, RB-410)], for which the Ki is 0.717 µM in experiment [1], 11.8 µM in experiment [2] and more than 10 µM in experiment [3].

For the compound `COc1cc(-c2nc3c([nH]2)c(=O)n(C)c(=O)n3C)ccc1OCC(=O)NCCN(C)C` [1,3-Dimethyl-8-[{4-(2-(dimethylaminoethylamino)-2-oxoethoxy)-3-methoxy}-phenyl]xanthine (15a, RB-386)], the Ki in experiment [1] is 0.821 µM; in experiment [2], 9.25 µM; in experiment [3], 10 µM.

For the compound `COc1cc(-c2nc3c([nH]2)c(=O)n(C)c(=O)n3C)ccc1OCC(=O)N1CCCCCC1` [1,3-Dimethyl-8-[{4-(2-(hexamethyleneimin-1-yl)-2-oxoethoxy)-3-methoxy}-phenyl]xanthine (15e, RB-387)], the Ki is 2.41 µM in experiment [1], more than 10 µM in experiment [2] and 7.82 µM in experiment [3].

`COc1ccc(CCNC(=O)COc2ccc(-c3nc4c([nH]3)c(=O)n(C)c(=O)n4C)cc2OC)cc1OC` [1,3-Dimethyl-8-[{4-(2-(homoveratrylamino)-2-oxoethoxy)-3-methoxy}-phenyl]-xanthine (15i, RB-389)]: the Ki in experiment [1] is 0.843 µM; in experiment [2], more than 30 µM; in experiment [3] it was more than 30 µM.

In the case of `COc1cc(-c2nc3c([nH]2)c(=O)n(C)c(=O)n3C)ccc1OCC(=O)n1ccnc1` [1,3-Dimethyl-8-[{4-(2-(imidazol-1-yl)-2-oxoethoxy)-3-methoxy}-phenyl]xanthine (15h, RB-390)], the values for the Ki in experiment [1], in experiment [2] and in experiment [3] were 7.74 µM, more than 30 µM and more than 30 µM, respectively.

In the case of `COC(=O)COc1ccc(-c2nc3c([nH]2)c(=O)n(C)c(=O)n3C)cc1OC` [1,3-Dimethyl-8-[{4-(2-methoxy-2-oxoethoxy)-3-methoxy}-phenyl]xanthine (15, RB-384)], the Ki in experiment [1] was 4.38 µM; in experiment [2], more than 30 µM; in experiment [3], more than 10 µM.

Turning to `CCN(CC)CCNC(=O)COc1cccc(-c2nc3c([nH]2)c(=O)n(C)c(=O)n3C)c1` [8-[3-{2-(Diethylaminoethylamino)-2-oxoethoxy}-phenyl]-1,3-dimethylxanthine (14b, RB-378)], the Ki in experiment [1] is 0.179 µM; in experiment [2], 1.22 µM; in experiment [3], 4.91 µM.

Regarding `CCN(CC)CCNC(=O)COc1ccc(-c2nc3c([nH]2)c(=O)n(C)c(=O)n3C)cc1` [8-[4-{2-(Diethylaminoethylamino)-2-oxoethoxy}-phenyl]-1,3-dimethylxanthine (13b, RB-421)], the values for the Ki in experiment [1], in experiment [2] and in experiment [3] were 0.063 µM, 0.298 µM and 0.968 µM, respectively.

Turning to `CCN(CC)CCNC(=O)COc1cc(-c2nc3c([nH]2)c(=O)n(C)c(=O)n3C)ccc1OC` [8-[{3-(2-(Diethylaminoethylamino)-2-oxoethoxy)-4-methoxy}phenyl]-1,3-dimethylxanthine (16b, RB-411)], the Ki was 0.126 µM in experiment [1], 1.97 µM in experiment [2] and 8.05 µM in experiment [3].

Regarding `CCN(CC)CCNC(=O)COc1ccc(-c2nc3c([nH]2)c(=O)n(C)c(=O)n3C)cc1OC` [8-[{4-(2-(Diethylaminoethylamino)-2-oxoethoxy)-3-methoxy}-phenyl]-1,3-dimethyl-xanthine (15b, RB-388)], the inhibition constant (Ki) in experiment [1] is 0.692 µM; in experiment [2], more than 10 µM; in experiment [3], more than 10 µM.

The Ki is a measure of affinity in units of concentration, obtained from inhibition or displacement.
